{
  "source": "paper PMC11740379",
  "about": "“Novel Enyne-Modified 1,4-Thiazepines as Epidermal Growth Factor Receptor Inhibitors: Anticancer and Computational Studies” (ACS Omega, 2024)",
  "key": {"Caspase-9 mRNA": {"tested_on": "Caspase-9 mRNA", "assay": "qRT-PCR of apoptosis-related mRNA", "format": "cell-based, human", "conditions": "72 h, vs untreated control", "method": "(§1) To measure the mRNA expression levels of apoptosis-related genes B-cell lymphoma 2 (Bcl-2), Bcl-2-associated X protein (Bax), Cyclin-dependent kinase 2 (CDK2), and Cyclin E, total mRNA was extracted from cells treated with compound 6f using Trizol reagent (Sigma). cDNA was synthesized from the total mRNA using the Qiagen cDNA synthesis kit according to the manufacturer’s instructions. The following primers, each at a concentration of 350 nM, were employed: Bcl-2; forward ([…]), reverse ([…]); Bax; forward ([…]), reverse ([…]); Caspase-8; forward ([…]), reverse ([…]); Caspase-9; forward (TGTCTACGGCACAGATGGA), reverse (GGACTCGTCTTCAGGGGA); EGFRWT: forward ([…]), reverse (CCTGTGCCAGGGACCTTAC−); EGFRT790 M forward ([…]), reverse ([…]); human GAPDH; forward ([…]), reverse (AGATGGTGATGGGCTTCCC). The PCR mix was prepared with 1× buffer containing 0.2 mM dNTPs, 1.6 mM MgCl2, […] of each primer set, cDNA, and 0.25 U Taq polymerase. The PCR conditions were as follows: an initial denaturation at 95 °C for 60 s, followed by 50 cycles of 95 °C for 15 s, 60 °C for 15 s, and 72 °C for 60 s. The cycle threshold (CT) for each replicate was normalized to the average CT of the endogenous control (GAPDH). The relative quantification of gene expression was calculated using the comparative CT method.[17]"}, "Caspase-8 mRNA": {"tested_on": "Caspase-8 mRNA", "assay": "qRT-PCR of apoptosis-related mRNA", "format": "cell-based, human", "conditions": "72 h, vs untreated control", "method": "as §1"}, "Bcl-2 mRNA": {"tested_on": "Bcl-2 mRNA", "assay": "qRT-PCR of apoptosis-related mRNA", "format": "cell-based, human", "conditions": "72 h, vs untreated control", "method": "as §1"}, "Bax mRNA": {"tested_on": "Bax mRNA", "assay": "qRT-PCR of apoptosis-related mRNA", "format": "cell-based, human", "conditions": "72 h, vs untreated control", "method": "as §1"}, "MCF-7 cells [1]": {"tested_on": "MCF-7 cells", "assay": "Annexin V-FITC/PI apoptosis detection by flow cytometry", "format": "cell-based, human", "conditions": "MCF-7, IC50 concentration, 72 h", "description": "(§2) Annexin V, a protein with a high affinity for phosphatidylserine (PS), is pivotal in detecting apoptosis. Normally, PS is located in the inner leaflet of the plasma membrane, but during apoptosis, it moves to the outer leaflet, making it a key marker for apoptotic cells.[16] Annexin V binds specifically to PS on the surface of these cells. A secondary dye like propidium iodide (PI) is used to distinguish apoptotic cells from viable ones with intact membranes. We can identify and quantify viable cells (annexin V–, PI–) and apoptotic cells (annexin V+, PI+) by analyzing fluorescence patterns. Here, we employed the FITC Annexin V Apoptosis Detection Kit I from BD Pharmingen. Cells were seeded at a density of 10^6 cells per well in a 6-well plate and exposed to IC50 concentration of TZEP7 for 72 h. Following treatment, cells were rinsed with cold PBS, resuspended in 1 mL of 1× Binding Buffer, and stained with 5 μL of Annexin V FITC and 5 μL of PI. After vortexing, the samples were incubated at room temperature (25 °C) for 15 min in the dark. Postincubation, 400 μL of 1× Binding Buffer was added to each sample, and apoptosis was measured using a BD Accuri C6 Flow Cytometer. Cisplatin was used as an apoptosis-inducing reference drug."}, "A549 cells": {"tested_on": "A549 cells", "assay": "Annexin V-FITC/PI apoptosis detection by flow cytometry", "format": "cell-based, human", "conditions": "A549, IC50 concentration, 72 h", "description": "as §2"}, "PC-3 cells": {"tested_on": "PC-3 cells", "assay": "Annexin V-FITC/PI apoptosis detection by flow cytometry", "format": "cell-based, human", "conditions": "PC-3, IC50 concentration, 72 h", "description": "as §2"}, "MCF-7 cells [2]": {"tested_on": "MCF-7 cells", "assay": "XTT cytotoxicity assay, breast cancer cells", "format": "cell-based, human", "method": "The cells were cultured in RPMI medium (Sigma) supplemented with 10% heat-inactivated fetal bovine serum, 1% penicillin, and 1% L-glutamine, and incubated in a humidified CO2 atmosphere at 37 °C.\nTo evaluate the cytotoxic effects of TZEPs, which were dissolved in dimethyl sulfoxide (DMSO), the XTT assay (2,3-bis(2-methoxy-4-nitro-5-sulfophenyl)-2H-tetrazolium-5-carboxanilide) was employed. […] Following the incubation, 100 μL of XTT was added to each well, and the plates were incubated for an additional 4 h at 37 °C. The resulting color change was measured by recording the absorbance at 570 nm using a microplate reader (Tecan).\nConversely, an SI less than 1 means the drug is more toxic to normal cells than to target cells, which is undesirable in therapeutic contexts."}, "EGFRWT kinase": {"molecular_target": "EGFRWT kinase (Homo sapiens, UniProt P00533)", "sequence (P00533 25-1210)": "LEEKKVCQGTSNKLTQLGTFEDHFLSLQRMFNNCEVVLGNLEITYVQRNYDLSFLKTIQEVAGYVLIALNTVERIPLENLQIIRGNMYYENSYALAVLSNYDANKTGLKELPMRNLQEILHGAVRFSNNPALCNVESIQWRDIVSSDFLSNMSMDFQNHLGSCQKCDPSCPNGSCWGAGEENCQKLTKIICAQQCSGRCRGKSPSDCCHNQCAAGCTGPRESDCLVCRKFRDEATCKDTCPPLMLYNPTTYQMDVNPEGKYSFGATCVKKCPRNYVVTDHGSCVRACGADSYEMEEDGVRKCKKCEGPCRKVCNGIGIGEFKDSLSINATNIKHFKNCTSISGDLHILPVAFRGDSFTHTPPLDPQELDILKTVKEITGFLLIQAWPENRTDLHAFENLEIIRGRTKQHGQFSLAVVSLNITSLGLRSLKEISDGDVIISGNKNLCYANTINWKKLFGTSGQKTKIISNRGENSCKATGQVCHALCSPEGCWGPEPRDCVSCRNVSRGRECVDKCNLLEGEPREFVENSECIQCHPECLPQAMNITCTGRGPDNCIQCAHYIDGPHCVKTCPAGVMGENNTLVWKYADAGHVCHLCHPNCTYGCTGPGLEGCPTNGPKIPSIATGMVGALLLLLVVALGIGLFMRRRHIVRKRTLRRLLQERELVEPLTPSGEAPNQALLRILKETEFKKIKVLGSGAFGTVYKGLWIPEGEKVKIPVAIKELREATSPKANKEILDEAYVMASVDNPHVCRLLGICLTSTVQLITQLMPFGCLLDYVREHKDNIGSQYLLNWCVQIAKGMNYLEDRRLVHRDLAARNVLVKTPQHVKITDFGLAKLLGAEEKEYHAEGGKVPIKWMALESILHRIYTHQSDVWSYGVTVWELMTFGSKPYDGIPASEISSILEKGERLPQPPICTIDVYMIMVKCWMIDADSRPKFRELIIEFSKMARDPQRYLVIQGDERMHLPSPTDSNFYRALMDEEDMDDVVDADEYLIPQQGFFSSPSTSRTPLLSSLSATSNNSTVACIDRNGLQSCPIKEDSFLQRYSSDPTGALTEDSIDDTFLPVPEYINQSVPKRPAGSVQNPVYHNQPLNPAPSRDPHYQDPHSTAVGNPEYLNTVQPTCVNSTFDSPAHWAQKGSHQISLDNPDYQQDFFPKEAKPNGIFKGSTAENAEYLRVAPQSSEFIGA", "assay": "EGFR kinase inhibition assay (HTRF KinEASE-TK)", "format": "biochemical", "method": "The inhibitory effects of the target compounds on various EGFR kinases were assessed using a homogeneous time-resolved fluorescence (HTRF) assay, employing the HTRF KinEASE-TK kit (Cat# 62TK0PEC, Cisbio).[18] TZEP7 was tested at a range of diluted concentrations in the presence of 1% dimethyl sulfoxide (DMSO), with the kinase and compounds preincubated for 5 min. The reactions were initiated by adding ATP and TK-substrate-biotin, followed by a 60 min incubation at room temperature. […] After a 1 h incubation of the plate, readings were taken on a microplate reader under standard HTRF conditions. IC50 values were calculated using GraphPad Prism 5.0 software. Each reaction was duplicated, and at least three independent determinations were conducted. The data were analyzed using GraphPad Prism."}},
  "note": "Like-named read-outs stand apart in the source and are kept apart here.",
  "data": [
    {"smiles": "Cc1cc(C2=NCC(=CC#Cc3ccccc3)SC(c3ccc(Cl)cc3)=C2)ccc1F", "note": "[TZEP7]", "values": [
      {"measurement": "induction of Caspase-9 mRNA level", "setting": "Caspase-9 mRNA; A549, IC50 concentration", "result": 3.7, "unit": "fold"},
      {"measurement": "induction of Caspase-9 mRNA level", "setting": "Caspase-9 mRNA; MCF-7, IC50 concentration", "result": 4.4, "unit": "fold"},
      {"measurement": "induction of Caspase-9 mRNA level", "setting": "Caspase-9 mRNA; PC-3, IC50 concentration", "result": 3.6, "unit": "fold"},
      {"measurement": "induction of Caspase-8 mRNA level", "setting": "Caspase-8 mRNA; A549, IC50 concentration", "result": 3.8, "unit": "fold"},
      {"measurement": "induction of Caspase-8 mRNA level", "setting": "Caspase-8 mRNA; MCF-7, IC50 concentration", "result": 4.2, "unit": "fold"},
      {"measurement": "induction of Caspase-8 mRNA level", "setting": "Caspase-8 mRNA; PC-3, IC50 concentration", "result": 5.4, "unit": "fold"},
      {"measurement": "reduction of Bcl-2 mRNA level", "setting": "Bcl-2 mRNA; A549, IC50 concentration", "result": 3.3, "unit": "fold"},
      {"measurement": "reduction of Bcl-2 mRNA level", "setting": "Bcl-2 mRNA; MCF-7, IC50 concentration", "result": 3.4, "unit": "fold"},
      {"measurement": "reduction of Bcl-2 mRNA level", "setting": "Bcl-2 mRNA; PC-3, IC50 concentration", "result": 4.3, "unit": "fold"},
      {"measurement": "increase of Bax mRNA level", "setting": "Bax mRNA; A549, IC50 concentration", "result": 4.8, "unit": "fold"},
      {"measurement": "increase of Bax mRNA level", "setting": "Bax mRNA; MCF-7, IC50 concentration", "result": 4.1, "unit": "fold"},
      {"measurement": "increase of Bax mRNA level", "setting": "Bax mRNA; PC-3, IC50 concentration", "result": 4.3, "unit": "fold"},
      {"measurement": "cells in early apoptosis", "setting": "MCF-7 cells [1]", "result": 22.4, "unit": "%"},
      {"measurement": "cells in late apoptosis", "setting": "MCF-7 cells [1]", "result": 68.5, "unit": "%"},
      {"measurement": "cells in early apoptosis", "setting": "A549 cells", "result": 15.1, "unit": "%"},
      {"measurement": "cells in late apoptosis", "setting": "A549 cells", "result": 68.7, "unit": "%"},
      {"measurement": "cells in early apoptosis", "setting": "PC-3 cells", "result": 13.7, "unit": "%"},
      {"measurement": "cells in late apoptosis", "setting": "PC-3 cells", "result": 65.6, "unit": "%"},
      {"measurement": "viability at 0.1 µM", "setting": "MCF-7 cells [2]; Homo sapiens, MCF7, MCF-7, 0.1 μM, read-out: cell viability", "result": 68, "unit": "%"},
      {"measurement": "viability at 1 µM", "setting": "MCF-7 cells [2]; Homo sapiens, MCF7, MCF-7, 1 μM, read-out: cell viability", "result": 54, "unit": "%"},
      {"measurement": "viability at 10 µM", "setting": "MCF-7 cells [2]; Homo sapiens, MCF7, MCF-7, 10 μM, read-out: cell viability", "result": 44, "unit": "%"},
      {"measurement": "viability at 50 µM", "setting": "MCF-7 cells [2]; Homo sapiens, MCF7, MCF-7, 50 μM, read-out: cell viability", "result": 28, "unit": "%"},
      {"measurement": "viability at 100 µM", "setting": "MCF-7 cells [2]; Homo sapiens, MCF7, MCF-7, 100 μM, read-out: cell viability", "result": 18, "unit": "%"},
      {"measurement": "IC50", "setting": "MCF-7 cells [2]; Homo sapiens, MCF7, XTT assay, exposure time of the IC50 not stated (24, 48, 72 h tested), read-out: IC50, breast cancer (MCF-7)", "result": "14.1 ± 2.1", "unit": "µM"},
      {"measurement": "IC50", "setting": "MCF-7 cells [2]; Homo sapiens, MCF7, dose–response curve of Figure 2, read-out: IC50, MCF-7, dose–response curve", "result": 14.2, "unit": "µM"},
      {"measurement": "Selectivity index (SI), breast cancer (MCF-7)", "setting": "MCF-7 cells [2]; versus normal cells HEK-293", "result": 3.85},
      {"measurement": "IC50", "setting": "EGFRWT kinase", "result": 0.38, "unit": "µM"},
      {"measurement": "IC50", "setting": "EGFRWT kinase; A549 cells", "result": 0.36, "unit": "µM"}
    ]}
  ]
}
